Test results reported in US7632815B2, “Use of calmodulin kinase II inhibitors to treat myocardial dysfunction in structural heart disease” (Vanderbilt University, priority 2001, dated 2009).
Entries after “also recorded” stand apart in the source; their conditions may differ.

Tests used:
protein kinase C = details: cited from earlier work
[1] = system: mice after myocardial infarction surgery; experiment: Echocardiography 3 weeks after myocardial infarction surgery; format: in vivo, mouse; details: for LV internal diameter (LVID) during diastole / LV posterior wall (LVPW) wall thickness in diastole: between groups (KN-93 1 and 10, KN-92 30 μmol/Kg, AC3-I transgenic, WT); for cardiac hypertrophy / myocardial contractility (positive inotropic effect): FIG. 7; for Left ventricular (LV) fractional shortening: unanesthetized mice, vs WT or KN-92 30 μmol/Kg
Source text: FIGS. 7 A-D. CaMKII inhibition improves contractile function after myocardial infarction surgery. […] P<0.001 by ANOVA and asterisks indicate a significant difference compared to WT using a Bonferroni-corrected t test. B. LV internal diameter (LVID) during diastole is a marker of LV chamber dilation. […] C. LV posterior wall (LVPW) wall thickness in diastole is a measure of LV hypertrophy of the non-infarcted wall.
Myocardial infarction surgery: Surgery is routinely performed at the Vanderbilt mouse physiology core laboratory and is essentially identical to other published reports^18 8.^14 In brief, mice are anesthetized (pentobarbital 33 μg/g and ketamine 33 μg/g, i.p.) and placed on a rodent respirator (tidal vol. 0.5 ml, rate 120 breaths/min), the chest opened with a left parasternal thoracotomy, and the region of the mid-left anterior descending artery ligated with 8-0 suture. The chest is closed (running 5-0 suture), and the animal weaned from the respirator. Wild-type mice typically develop heart failure, as assessed by increased lung wet:dry weights. Sham operations omit the ligation step. Approximately 75% of animals survive surgery with a successfully infarcted anterior wall.

CAN+ transgenic mice = experiment: Echocardiography in calcineurin (CAN+) transgenic dilated cardiomyopathy model; details: AC3-I+/CAN+ vs CAN+ mice
protein kinase A = details: cited from earlier work
CaMKII [2] = experiment: CaMKII inhibitory potency against a synthetic CaMKII substrate; format: biochemical; details: 'previous studies'
CaMKII [3] = experiment: CaMKII activity assay in heart homogenate with syntide 2; format: in vivo, mouse
Procedure: CaMKII activity assays: CaMKII activity was assayed in AC3-I mice and littermate controls from whole heart (ventricular) homogenate with syntide 2-a synthetic substrate with ˜50 fold selectivity for CaMKII over CaMKIV,^9 using our previously published methods.^1

transgenic mice = experiment: Baseline echocardiography of transgenic mice; format: in vivo, mouse
CaMKII isoforms = details: cited from earlier work
[4] = diastole or systole, AC3-I transgenic vs WT littermates

KKALHRQEAVDCL [AC3-I]
activity against protein kinase C (protein kinase C): virtually devoid of activity
Heart rate ([1]; 3 weeks after MI surgery, AC3-I transgenic compared to all other groups): significantly slower
LV internal diameter (LVID) during diastole ([1]; 3 weeks after MI surgery): No significant differences
LV posterior wall (LVPW) wall thickness in diastole ([1]; 3 weeks after MI surgery): No significant differences
cardiac hypertrophy [1]: without affecting
myocardial contractility (positive inotropic effect) [1]: increase
Left ventricular fractional shortening ([1]; transgenically targeted AC3-I expression, after MI surgery, vs WT littermates): significantly better; also recorded: significantly greater
heart rates (CAN+ transgenic mice): no significant differences
activity against protein kinase A (protein kinase A): virtually devoid of activity
IC50 (CaMKII [2]): 500 nM
total CaMKII activity (CaMKII [3]; ventricular homogenates, compared to AC3-C mice and WT littermates): significantly reduced
cardiac CaMKII activity (CaMKII [3]; whole heart homogenates, AC3-I transgenic mice vs WT littermates): significantly reduced
Left ventricular fractional shortening (transgenic mice; baseline, AC3-I transgenic vs WT littermates): not different
Echocardiographic left ventricular dimensions (transgenic mice; [4]): not significantly different
Interventricular septal thickness (transgenic mice; [4]): not different
inhibition of CaMKII isoforms (CaMKII isoforms): inhibits all CaMKII isoforms

KLKALHAQERVDCL [AC3-C]
total CaMKII activity (CaMKII [3]; AC3-C transgenic mice, FIG. 6): high
Left ventricular fractional shortening (transgenic mice; AC3-C transgenic compared to AC3-I mice): significantly depressed
left ventricular internal diameter (LVID) in diastole (transgenic mice; AC3-C transgenic vs AC3-I mice): significantly greater

COc1ccc(S(=O)(=O)N(CCO)c2ccccc2CN(C)C/C=C/c2ccc(Cl)cc2)cc1 [KN-93]
LV internal diameter (LVID) during diastole ([1]; 3 weeks after MI surgery): No significant differences
LV posterior wall (LVPW) wall thickness in diastole ([1]; 3 weeks after MI surgery): No significant differences
cardiac hypertrophy [1]: without affecting
myocardial contractility (positive inotropic effect) [1]: increase
Left ventricular (LV) fractional shortening ([1]; KN-93 1 μmol/Kg body weight daily, 3 weeks after MI surgery): significantly greater
Left ventricular (LV) fractional shortening ([1]; KN-93 10 μmol/Kg body weight daily, 3 weeks after MI surgery): significantly greater

COc1ccc(S(=O)(=O)Nc2ccccc2CN(C)C/C=C/c2ccc(Cl)cc2)cc1 [KN-92]
LV internal diameter (LVID) during diastole ([1]; 3 weeks after MI surgery): No significant differences
LV posterior wall (LVPW) wall thickness in diastole ([1]; 3 weeks after MI surgery): No significant differences
